This assay is described as follows: Cytotoxicity against mouse L1210/0 cells after 48 hrs. The format is cell-based.

Where a SMILES comes first, the peptide text is derived from it.

A word on the IC50: it is the concentration that gives 50% inhibition. Higher therefore signals weaker potency.

The compound `CC(C)C[C@H](NC(=O)[C@@H]1CCCN1)C(=O)NCC(N)=O` (H-Pro-Leu-Gly-NH2) displayed an IC50 (Mus musculus, L1210/0, 48 h) of more than 200 µM.
The compound `Nc1ncnc2c1ncn2C1OC(C(O)O)[C@H](O)[C@H]1O` (single isomer, unassigned) registered an IC50 (Mus musculus, L1210/0, 48 h) of more than 200 µM.
On the same count and under the same terms, in the case of `Nc1ncnc2c1ncn2[C@@H]1O[C@H](C=O)C(O)C1O` (single isomer, unassigned) it was 36.6 µM.
Consider `Nc1ncnc2c1ncn2[C@@H]1O[C@H](/C=N/O)[C@@H](O)[C@H]1O` (stereo in doubt; 75), for which the IC50 (l1210/0) turned out to be 6.47 µM.
On the same count and under the same terms, in the case of `Nc1ncnc2c1ncn2[C@@H]1O[C@H](/C=N/O)[C@@H](O)[C@H]1O` (stereo in doubt; 82) it was 37.5 µM.
In the case of `Nc1nc2c(ncn2COCCO)c(=O)[nH]1` [ACYCLOVIR], inhibition (Mus musculus, L1210/0, 48 h) was half-maximal at 57.7 µM (IC50).
Same read-out and setting: in the case of `Nc1ncnc2c1ncn2CCOCP(=O)(O)O` [ADEFOVIR] it was 7.45 µM.
Still for that read-out and setting: for `O=c1[nH]c(=O)n([C@H]2C[C@H](O)[C@@H](CO)O2)cc1/C=C/Br` [BRIVUDINE] the value was 80.8 µM; for `O=c1[nH]c(=O)n([C@H]2C[C@H](O)[C@@H](CO)O2)cc1Br` [BROXURIDINE], 84.7 µM.
On the same count and under the same terms, for `Nc1ccn([C@@H]2O[C@H](CO)[C@@H](O)[C@@H]2O)c(=O)n1` [CYTARABINE] the value was 0.7 µM; for `CCc1cn([C@H]2C[C@H](O)[C@@H](CO)O2)c(=O)[nH]c1=O` [EDOXUDINE], 33.2 µM.
`O=c1[nH]cc(F)c(=O)[nH]1` [FLUOROURACIL]: where the note is “Mus musculus, L1210/0, 48 h”, the half-maximal inhibitory concentration (IC50) came out at 0.31 µM. Compared with the last compound, the IC50 is about 110-fold lower.
Take `Nc1nc2c(ncn2CCOCP(=O)(O)O)c(=O)[nH]1` [GS-438]: the IC50 (Mus musculus, L1210/0, 48 h) was 0.57 µM.
With `O=c1[nH]c(=O)n([C@H]2C[C@H](O)[C@@H](CO)O2)cc1I` [IDOXURIDINE], the 50% inhibitory concentration (IC50) (Mus musculus, L1210/0, 48 h) amounted to 173 µM. This IC50 lies about 300-fold higher than the previous one.
The same measure, in the same setting: in the case of `Nc1nc(N)c2ncn(CCOCP(=O)(O)O)c2n1` [PMEDAP] it was 1.73 µM; in that of `O=c1[nH]c(=O)n([C@H]2C[C@H](O)[C@@H](CO)O2)cc1C(F)(F)F` [TRIFLURIDINE], 0.02 µM.

The record behind these values is ChEMBL document CHEMBL1142978, “Probing the anticancer activity of nucleoside analogues: a QSAR model approach using an internally consistent training set” (J Med Chem, 2007).
